From patent US7923465B2, “Cannabinoid receptor ligands, pharmaceutical compositions containing them, and process for their preparation” (priority 2005, dated 2011) come the findings set out here.

Structures are written as SMILES. Like-named read-outs stand apart in the source and are kept apart here.

For data set [1], the target named is T1, hCB1 (Homo sapiens, UniProt P21554). The experiment in a line: In vitro binding assay using hCB1-CHO membranes, [3H]-CP-55,940 displacement (Protocol II). Also noted: expressed in transfected cells; host or cells: CHO (hCB1-CHO, generated in-house). On the procedure:
II. Protocol for In Vitro Assay Using hCB1-CHO Membranes
The reaction was set up in a total volume of 200 μl in PEI (Poly(ethyleneimine)) (0.2%) precoated Millipore GFB (Glass Fibre-B) filter plates. 1 mM stocks of test compounds were prepared in DMSO and tested at a final concentration of 300 nM. The non-specific binding was determined by 0.5 μM CP-55, 940. […] The assay mixture (with or without the test compound) was incubated at 37° C. for 1 hour. The reaction was stopped by rapid filtration under vacuum and the radioactivity on the filters was measured by liquid scintillation counting.

For data set [2], the target named is T2, hCB2 (Homo sapiens, UniProt P34972). The experiment in a line: In vitro binding assay using hCB2-CHO membranes, [3H]-CP-55,940 displacement (Protocol IV). Set-up: expressed in transfected cells; host or cells: CHO (hCB2-CHO, generated in-house). To be noted: for % Displacement Protocol IV: hCB2-CHO membranes, [3H]-CP-55,940 displacement. The procedure, abridged: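 Displacement of [3H]-CP-55,940 (0.75 nM) from membranes of CHO cells expressing human CB2 (25-50 μg) was measured in Tris-BSA buffer pH 7.4 with 5 mM MgCl2, 1 mM EDTA, 0.1% BSA, 1 h at 30 °C. Test compounds were at 300 nM final; nonspecific binding defined with 0.5 μM CP-55,940. Values are % displacement of specific binding.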

The target in data set [3] is T3, CB1 (Rattus norvegicus, UniProt P20272). The experiment in a line: GTPγS binding assay, CB1 functional assay in rat cerebellar membrane (Protocol VIII). In kind it is biochemical. Also noted: 10 μg rat cerebellum membrane; from tissue; host or cells: rat cerebellum membrane, prepared in-house. To be noted: for Per Se % Stimulation / activation at 1 µM: GTPγS binding over basal, rat cerebellar membrane, tested at 1 uM; for % Inhibition of WIN-55212-2 induced stimulation / inhibition at 1 µM: GTPγS binding, tested at 1 uM in presence of 1 μM WIN 55,212-2; for activation at 1 µM: 1 h, read-out: Per Se % Stimulation; for inhibition at 1 µM: read-out: % Inhibition of WIN-55212-2 induced stimulation. The procedure, abridged:
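Rat cerebellar membranes (10 μg) incubated 1 h at 30 °C with 0.2 nM [35S]GTPγS, 50 μM GDP, and compound at 1 μM or 300 nM, alone or with 1 μM WIN 55,212-2, in Tris/MgCl2/EGTA/NaCl pH 7.4. Filter-bound radioactivity counted; percent stimulation calculated against basal specific binding (nonspecific defined by 10 μM GTPγS).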
(Binding of GTPγS marks nucleotide exchange on a G protein.)

In data set [4] the target is T3, CB1. The experiment in a line: Rat CB1 receptor binding using brain membrane, [3H]SR141716A displacement (Protocol I). Also noted: CB1 receptor present in a rat brain membrane preparation; from tissue; host or cells: rat brain membrane; inhibition: dose or concentration left out as unconfirmed. To be noted: for inhibition: 1 h.
Data set [5] deals with T1, hCB1. Put plainly: Antagonism of CB1 receptors expressed in CHO cells, cAMP assay against CP 55,940 (Protocol IX.1). To be noted: h-CB1/CHO cells, cAMP, vs 30 nM CP 55,940; for inhibition at 10 µM: read-out: hCB1 Antagonism. It counts as cell-based. Also noted: expressed in transfected cells; host or cells: CHO (h-CB1/CHO, G418-selected). On the procedure: (§1) IX. Assay for Determining Agonist and Antagonist Activity to CB1 and CB2 Receptors
1. Antagonism of CB1/CB2 Receptors Expressed in CHO Cells.
h-CB1/CHO or h-CB2/CHO cells were grown in HAM's F12 DMEM medium (Sigma) with 10% FBS (Hyclone), 1% penicillin-streptomycin solution and 400 μg/ml of G418 (Sigma). 5000 cells were seeded per well in a 96 well plate and incubated for 24 hours at 37° C. in 5% CO2. On the day of assay, cells were washed with warm Krebs buffer containing 0.1% fatty acid free (FAF) BSA (Sigma) and re-suspended in the same buffer containing 1 mM IBMX. […] At the end of incubation, cells were lysed using lysis reagent from the cAMP estimation kit and cAMP was quantitated by the chemiluminescence method described in the manufacturer's instructions (DiscoveRX). EC50 values were calculated from dose response curves by nonlinear regression analysis using PRISM software.

Data set [6] concerns the target T2, hCB2. The experiment in a line: Agonism of CB2 receptors expressed in CHO cells, forskolin cAMP assay (Protocol IX.2). It counts as cell-based. Also noted: expressed in transfected cells; host or cells: CHO (h-CB2/CHO, G418-selected). How it is done:
as §1
2. Agonism of CB1/CB2 Receptors Expressed in CHO Cells
h-CB1/CHO or h-CB2/CHO cells were grown in HAM's F12 DMEM medium (Sigma) with 10% FBS (Hyclone), 1% penicillin-streptomycin solution and 400 μg/ml of G418 (Sigma). 5000 cells were seeded per well in a 96 well plate and incubated for 24 hours at 37° C. in 5% CO2. On the day of assay, cells were washed with warm Krebs Buffer containing 0.1% fatty acid free (FAF) BSA (Sigma) and re-suspended in the same buffer containing 1 mM IBMX. Test compound or CP 55,940 as a reference compound (30 nM final concentration for CB1 testing and 10 μM of the same for CB2 testing) diluted in FFB+IBMX+Krebs buffer was added to the cells followed by forskolin addition (10 uM final concentration) and incubated for 30 minutes at room temperature. At the end of incubation, cells were lysed using lysis reagent from the cAMP estimation kit and cAMP was quantitated by chemiluminescence method described in the manufacturer's instructions (DiscoveRX). EC50 values were calculated from dose response curves by nonlinear regression analysis using PRISM software.
For orientation: Changes in cAMP serve as a functional read-out for many G protein-coupled receptors.

Setting [7] is: rat brain membrane, [3H]SR141716A displacement.
Setting [8] is: rat brain membrane, [3H]SR141716A displacement, read-out: % Displacement Protocol I.
Where [9] appears, read: read-out: % Displacement Protocol I, rat brain membrane, [3H]SR141716A displacement.

T2 sequence (P34972 whole entry): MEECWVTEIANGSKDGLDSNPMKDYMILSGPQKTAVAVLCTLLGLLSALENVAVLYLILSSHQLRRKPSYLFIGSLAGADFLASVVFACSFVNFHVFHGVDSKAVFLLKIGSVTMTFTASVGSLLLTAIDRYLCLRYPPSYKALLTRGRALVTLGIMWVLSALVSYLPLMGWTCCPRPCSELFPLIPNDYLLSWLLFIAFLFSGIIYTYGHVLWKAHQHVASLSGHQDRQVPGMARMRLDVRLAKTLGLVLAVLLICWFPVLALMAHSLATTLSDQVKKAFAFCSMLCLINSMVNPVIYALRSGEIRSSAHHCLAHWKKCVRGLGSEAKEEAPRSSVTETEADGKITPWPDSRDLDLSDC
T1 sequence (P21554 whole entry): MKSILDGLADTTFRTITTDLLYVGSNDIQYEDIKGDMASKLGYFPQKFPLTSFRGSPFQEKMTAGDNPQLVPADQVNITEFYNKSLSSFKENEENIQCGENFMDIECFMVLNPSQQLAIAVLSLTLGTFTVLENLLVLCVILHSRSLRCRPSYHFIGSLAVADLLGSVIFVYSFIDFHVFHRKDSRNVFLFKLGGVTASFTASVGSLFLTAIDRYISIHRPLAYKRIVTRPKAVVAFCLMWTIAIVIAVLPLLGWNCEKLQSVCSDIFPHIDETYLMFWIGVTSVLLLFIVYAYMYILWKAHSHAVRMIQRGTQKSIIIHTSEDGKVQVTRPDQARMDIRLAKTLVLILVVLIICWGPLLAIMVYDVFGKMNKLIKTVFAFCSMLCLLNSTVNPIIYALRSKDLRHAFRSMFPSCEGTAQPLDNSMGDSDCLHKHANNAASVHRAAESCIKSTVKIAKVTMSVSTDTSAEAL
T3 sequence (P20272 whole entry): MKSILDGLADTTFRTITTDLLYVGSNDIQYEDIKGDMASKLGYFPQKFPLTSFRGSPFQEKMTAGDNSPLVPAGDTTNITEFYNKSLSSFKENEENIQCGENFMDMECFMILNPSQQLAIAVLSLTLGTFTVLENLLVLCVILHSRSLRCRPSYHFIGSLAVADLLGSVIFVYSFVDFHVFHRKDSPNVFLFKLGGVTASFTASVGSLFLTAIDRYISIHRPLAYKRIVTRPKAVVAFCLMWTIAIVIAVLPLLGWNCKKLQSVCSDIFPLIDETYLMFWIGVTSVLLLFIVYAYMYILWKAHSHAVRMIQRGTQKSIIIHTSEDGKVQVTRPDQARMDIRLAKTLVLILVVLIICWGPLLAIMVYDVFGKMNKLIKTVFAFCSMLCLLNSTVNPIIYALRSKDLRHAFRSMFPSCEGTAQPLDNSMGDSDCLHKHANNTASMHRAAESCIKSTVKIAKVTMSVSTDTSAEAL

Take `O=C(NCc1ccccc1)c1nn(-c2ccc(Cl)cc2Cl)c2c1C1CC3CC(C1)CC2C3` [Example 179, N(7)-Benzyl-5-(2′,4′-dichlorophenyl)-5,6-diazatetracyclo[7.3.1.1^3,11.0^4,8]tetradeca-4(8)-6-diene-7-carboxamide]: the “% Displacement Protocol II” value in data set [1] came to 30.88%. Also, the “% Displacement Protocol IV” value in data set [2] is given as 18.21%. In addition, in data set [3], the “Per Se % Stimulation” value worked out at 7.8% and the “% Inhibition of WIN-55212-2 induced stimulation” value (“% Inhibition” below) is recorded as 89.7%. Also, the “% Displacement Protocol I” value in data set [4] (setting [7]) was determined as 48%.

For `O=C(NNc1ccc(F)cc1F)c1nn(-c2ccc(Cl)cc2)c2c1C1CCC2C1` (stereo not shown) [Example 235, N(3)-[(2,4-Difluorophenyl)amino]-1-(4-chlorophenyl)-4,5,6,7-tetrahydro-1H-4,7-methano-indazole-3-carboxamide], the melting point (as a rule, the temperature of the solid-liquid transition) lay within 118 to 120 °C. For the same compound, the inhibition at 10 µM in data set [5] (at 10 uM) came out at 59.9%. The inhibition in data set [4] (setting [8]) turned out to be 46.8%.

With `Cl.O=C(NNc1ccccc1)c1nn(-c2ccc(Cl)cc2)c2c1C1CC3CC(C1)CC2C3` [Example 122, N(7)-(N′-phenylamino)-5-(4-chlorophenyl)-5,6-diazatetracyclo[7.3.1.1^3,11.0^4,8]tetradeca-4(8),6-diene-7-carboxamide hydrochloride], in data set [5] (at 10 uM), the inhibition at 10 µM is 40.7%. In addition, in data set [3], the “Per Se % Stimulation” value was found to be 1.2% and the “% Inhibition” value is 59.3%. In data set [4] (setting [9]), the inhibition came to 66.4%.

Consider `O=C(NN1CCCCC1)c1nn(-c2ccc(Cl)cc2Cl)c2c1C1CCC2C1` (stereo not shown) [Example 268, N(5)-piperidino-3-(2′,4′-dichlorophenyl)-3,4-diazatricyclo[5.2.1.0^2,6]deca-2(6),4-diene-5-carboxamide], for which the inhibition at 1 µM in data set [5] (at 1 uM) is 50.9%; in data set [3], 55.3%. Moreover, the activation at 1 µM in data set [3] was found to be 29.1%. Further, the inhibition in data set [4] (setting [8]) stood at 41%.

As to `O=C(NC1CCCC1)c1nn(-c2ccc(Cl)cc2)c2c1C1CCC2C1` (stereo not shown) [Example 212, N(3)-Cyclopentyl-1-(4-chlorophenyl)-4,5,6,7-tetrahydro-1H-4,7-methano-indazole-3-carboxamide], the melting point fell in the range of 176 to 178 °C. The inhibition at 10 µM in data set [5] (at 10 uM) amounted to 39.1%. In addition, in data set [3], the activation at 1 µM is -13.8% and the inhibition at 1 µM was 97.4%. The inhibition in data set [4] (setting [9]) turned out to be 68.4%.

`CC(C)(C)NC(=O)c1nn(-c2ccc(F)cc2F)c2c1C1CCC2(C)C1(C)C` (stereo not shown) [Example 408, N(3)-tert-Butyl-1-(2,4-difluorophenyl)-7,8,8-trim ethyl-4,5,6,7-tetrahydro-1H-methano-indazole-3-carboxamide]: in data set [6] (h-CB2/CHO cells, cAMP, read-out: hCB2 Agonism IC50), the IC50 (usually the concentration at which inhibition is half-maximal) came out at 16.1 nM. Besides, in data set [1], the “% Displacement Protocol II” value turned out to be 24.93%. Also, the “% Displacement Protocol IV” value in data set [2] was 61.92%.

Turning to `O=C(NC1CCCCC1)c1nn(-c2ccc(Cl)cc2)c2c1C1CC3CC(C1)CC2C3` [Example 106, N(7)-Cyclohexyl-5-(4-chlorophenyl)-5,6-diazatetracyclo[7.3.1.1^3,11.0^4,8]tetradeca-4(8),6-diene-7-carboxamide], the melting point is 162 °C. Further, the “hCB2 Agonism” value in data set [6] (concentration not given) stood at 0%. For the same compound, the inhibition at 0.3 µM in data set [2] (1 h, read-out: % Displacement Protocol IV) was 75.1%. In addition, in data set [3], the activation at 1 µM was -10% and the inhibition at 1 µM is 65.3%. In data set [4] (setting [9]), the inhibition came out at 78.6%.

On to `O=C(NC1CCCCC1)c1nn(-c2ccccc2Cl)c2c1C1CC3CC(C1)CC2C3` [Example 183, N(7)-cyclohexyl-5-(2-chlorophenyl)-5,6-diazatetracyclo[7.3.1.1^3,11.0^4,8]tetradeca-4(8)-6-diene-7-carboxamide], for which, in data set [1], the “% Displacement Protocol II” value was 17.24%. In addition, the “% Displacement Protocol IV” value in data set [2] is on record as 18.23%. Further, in data set [3], the “Per Se % Stimulation” value amounted to 13.0% and the “% Inhibition” value was determined as 72.5%. Moreover, in data set [4] (setting [7]), the “% Displacement Protocol I” value worked out at 45.9%.

Turning to `O=C(NC12CC3CC(CC(C3)C1)C2)c1nn(-c2ccc(Cl)cc2)c2c1C1CC3CC(C1)CC2C3` [Example 109, N(7)-(Adamantan-1-yl)-5-(4-chlorophenyl)-5,6-diazatetracyclo[7.3.1.1^3,11.0^4,8]tetradeca-4(8)-6-diene-7-carboxamide], in data set [5] (at 10 uM), the “hCB1 Antagonism” value is listed as 61.64% at. In addition, the “% Displacement Protocol II” value in data set [1] was found to be 8.36%. Further, the “% Displacement Protocol IV” value in data set [2] amounted to 63.05%.

In the case of `O=C(NCc1ccccc1)c1nn(-c2ccccc2)c2c1C1CC3CC(C1)CC2C3` [Example 170, N(7)-Benzyl-5-phenyl-5,6-diazatetracyclo[7.3.1.1^3,11.0^4,8]tetradeca-4(8)-6-diene-7-carboxamide], the “% Displacement Protocol II” value in data set [1] came out at 29.49%. In data set [2], the “% Displacement Protocol IV” value came to 27.16%. In addition, in data set [3], the “Per Se % Stimulation” value was found to be 17.5% and the “% Inhibition” value was determined as 80.3%. Moreover, the “% Displacement Protocol I” value in data set [4] (setting [7]) is recorded as 40.0%.

`CC(C)(C)c1ccc(NC(=O)c2nn(-c3ccc(Cl)cc3)c3c2C2CCC3C2)cc1` (stereo not shown) [Example 219, N(3)-(4-tert-Butylphenyl)-1-(4-chlorophenyl)-4,5,6,7-tetrahydro-1H-4,7-methano-indazole-3-carboxamide] had a melting point of 76 to 78 °C. Further, the inhibition at 10 µM in data set [5] (at 10 uM) was determined as 33.4%. Moreover, the inhibition in data set [4] (setting [8]) came out at 33.7%.

As to `O=C(NCc1ccc(F)cc1)c1nn(-c2ccc(Cl)cc2)c2c1C1CCC2C1` (stereo not shown) [Example 226, N(3)-(4-Fluorobenzyl)-1-(4-chlorophenyl)-4,5,6,7-tetrahydro-1H-4,7-methano-indazole-3-carboxamide], the melting point is 104 to 107 °C. Also, the inhibition at 10 µM in data set [5] (at 10 uM) came to 71%. Besides, in data set [4] (setting [8]), the inhibition worked out at 38.4%.
